Reference: article PMC9481597 (Communications Biology, 2022)
“And” between values parts separate entries of the source, which are not always exact repeats. Equal entries are not always repeated. “Also recorded” adds a separate entry of the source. Where two headings read alike, the source gives them in different places. Marks after values point to notes of the source that are not given here.

Key:
[1] = molecular target: T1, MPro^1–199 (monomeric catalytic domain) (Severe acute respiratory syndrome coronavirus 2, UniProt P0DTC1); format: binding, SARS-CoV-2
[2] = molecular target: T2, MPro^1–196 (Severe acute respiratory syndrome coronavirus 2, UniProt P0DTC1); format: binding, SARS-CoV-2
T2 construct: MPro^1–196 spans residues 1–196; 6His, spacer and TEV protease cleavage site (N, cleaved yes); made in house; host or cells: E. coli BL21-DE3

[3] = molecular target: T1, MPro^1–199 (monomeric catalytic domain); format: binding, SARS-CoV-2; design: made in house; host or cells: E. coli BL21-DE3
[4] = molecular target: T2, MPro^1–196; design: species or system SARS-CoV-2
[5] = molecular target: T3, MPro^1–199 (Severe acute respiratory syndrome coronavirus 2, UniProt P0DTC1); format: binding; conditions: for protein-inhibitor adduct in mass spectra: NMV: 50 µM mixtures, GC373: high concentrations, diluted to 20 µM in 5% acetic acid
T3 construct: made in house; host or cells: E. coli BL21-DE3

[6] = molecular target: T2, MPro^1–196; format: binding; conditions: NMV: 50 µM mixtures; GC373: high concentrations; diluted to 20 µM in 5% acetic acid
[7] = system: MPro^M (full-length monomeric double mutant E290A, R298A); conditions: ITC, cited from earlier work
[8] = molecular target: T3, MPro^1–199; design: species or system SARS-CoV-2
[9] = molecular target: T4, MPro^WT (Severe acute respiratory syndrome coronavirus 2, UniProt P0DTC1); test: Monomer-dimer equilibrium of MPro^WT in the presence of inhibitor; design: species or system SARS-CoV-2; conditions: predicted because of thermodynamic stabilization of the dimer upon inhibitor binding
T4 construct: The full-length wild-type (MPro^WT) was expressed and purified; made in house; host or cells: E. coli BL21-DE3
Method: Enzyme kinetics were carried out as described previously in reference 1. ^(a)Calculated from Lineweaver-Burk plot. ^(b)Calculated from plot of v vs [E].

[10] = molecular target: T4, MPro^WT; format: binding; conditions: protein with 2x inhibitor, diluted to 20 µM in 5% acetic acid
[11] = molecular target: T5, MPro^10–306 (Severe acute respiratory syndrome coronavirus 2, UniProt P0DTC1); format: binding, SARS-CoV-2
T5 construct: MPro^10–306 spans the region 10–306 of MPro followed by GP-6His; GP-6His (C, cleaved yes); made in house; host or cells: E. coli BL21-DE3

[12] = molecular target: T5, MPro^10–306; design: species or system SARS-CoV-2
[13] = system: MPro^M; design: method as in earlier work; conditions: in presence of GC373; supplement numbering; cited from earlier work
[14] = molecular target: T5, MPro^10–306; format: binding; conditions: 50 µM mixtures, diluted to 20 µM in 5% acetic acid
[15] = molecular target: T3, MPro^1–199; format: biochemical, SARS-CoV-2

Row | SMILES | N [2] | ΔG [2] | ΔH [2] | ΔS [2] | N [3] | ΔG [3] | ΔH [3] | ΔS [3] | Kdimer.app [4] | protein-inhibitor adduct in mass spectra [5] | protein-inhibitor adduct in mass spectra [6] | Kdimer.app [8] | apparent Kdimers [8] | dimer contribution (in monomer units) [8] | faster sedimenting peak, share of signal [8] | Kdimer.app [9] | protein-inhibitor adduct in mass spectra [10] | Kdimer.app [12] | also measured
1 | CC(C)C[C@H](NC(=O)OCc1ccccc1)C(=O)N[C@H](C=O)C[C@@H]1CCNC1=O [GC373] | 0.88 ± 0.09 | -6 kcal/mol | -1.48 ± 0.24 kcal/mol | 15 cal/mol/K | 0.9 ± 0.03 | -6.2 kcal/mol | -2.4 ± 0.1 kcal/mol | 12.7 cal/mol/K | >1200 µM | only the molecular ions of the unmodified protein | only the molecular ions of the unmodified protein | 1200 ± 200 µM | more than 175 µM | 20% | about 14% | ≤2^(d) µM | not observed | >>1200 µM | fold increase in Kd (weaker binding) relative to MPro^WT [1]: 200 to 300 fold; net ΔG difference relative to MPro^WT [1]: about 3 kcal/mol; Kd ([1]; read-out: Kd range): 32 to 45 µM; Kd ([2]; read-out: Kd = Ki): 45 ± 20 µM; Kd ([3]; read-out: Kd = Ki): 32 ± 5 µM; dimer formation in SV-AUC [4]: no dimer was observed; N [7]: 1.07 ± 0.02; ΔG [7]: -7.2 kcal/mol; ΔH [7]: -6.0 ± 0.2 kcal/mol; ΔS [7]: 3.9 cal/mol/K; Kd ([7]; read-out: Kd = Ki): 6.2 µM and 6.13 µM; N [11]: 0.54 ± 0.03; ΔG [11]: -6 kcal/mol; ΔH [11]: -1.38 ± 0.1 kcal/mol; ΔS [11]: 15.3 cal/mol/K; Kd ([11]; read-out: Kd = Ki): 44 ± 8 µM; Kdimer.app [13]: 6.2^(e^) µM
2 | CC(C)(C)[C@H](NC(=O)C(F)(F)F)C(=O)N1C[C@H]2[C@@H]([C@H]1C(=O)N[C@H](C#N)C[C@@H]1CCNC1=O)C2(C)C [NMV, nirmatrelvir] | 1.05 ± 0.03 | -6.7 kcal/mol | -1.8 ± 0.1 kcal/mol | 16.3 cal/mol/K | 0.97 ± 0.04 | -6.5 kcal/mol | -3.9 ± 0.1 kcal/mol | 8.8 cal/mol/K | 510 ± 0.05 µM | adducts were observed | adducts were observed | 180 ± 0.01 µM | more than 175 µM | 52% | 68% | ≤2^(d) µM | nearly equal distribution of MPro^WT and the MPro^WT-NMV adduct | >510 µM | protein-inhibitor adduct in mass spectra [14]: very little binding; also recorded: adducts were observed; dimer contribution (in monomer units) [4]: 33%; stability of protein-adducts ([5]; 20 µM in acetic acid at ambient temperature (Figs. 7d and S10b)): stable for days; slower sedimenting (2.31S) species, share of integrated signal [8]: 32%; dimer formation in SV-AUC [12]: no detectable dimer formation; catalytic activity with the FRET substrate upon addition of inhibitor [15]: inhibited
